Values quoted from earlier work, collected in patent US9227958B2, “Amorphous and crystalline forms of aprepitant and processes for the preparation thereof” (Glenmark Pharmaceuticals Limited, priority 2006, dated 2016).

How the values were obtained:
Conditions in all cases: stated in words, background
[1] = biological target: human substance P/neurokinin 1 (NK1) receptors (Homo sapiens, UniProt P25103)
[2] = biological target: T1, serotonin (5-HT3) receptors (Homo sapiens, UniProt P46098)
T1 sequence (P46098 24-478): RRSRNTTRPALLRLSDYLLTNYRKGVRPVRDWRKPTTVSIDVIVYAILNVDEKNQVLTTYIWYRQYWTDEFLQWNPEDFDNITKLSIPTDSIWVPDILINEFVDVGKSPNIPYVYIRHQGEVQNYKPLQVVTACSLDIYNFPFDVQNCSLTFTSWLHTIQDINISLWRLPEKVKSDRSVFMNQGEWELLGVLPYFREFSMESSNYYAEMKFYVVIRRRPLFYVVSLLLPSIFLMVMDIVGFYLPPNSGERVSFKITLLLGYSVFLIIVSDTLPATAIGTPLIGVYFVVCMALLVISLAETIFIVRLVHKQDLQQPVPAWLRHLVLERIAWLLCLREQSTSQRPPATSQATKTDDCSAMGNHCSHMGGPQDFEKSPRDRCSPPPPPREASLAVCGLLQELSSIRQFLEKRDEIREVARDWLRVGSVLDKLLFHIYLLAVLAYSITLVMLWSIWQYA

corticosteroid receptors = test system: corticosteroid receptors
dopamine receptors = test system: dopamine receptors

Sequence of human substance P/neurokinin 1 (NK1) receptors (P25103 whole entry): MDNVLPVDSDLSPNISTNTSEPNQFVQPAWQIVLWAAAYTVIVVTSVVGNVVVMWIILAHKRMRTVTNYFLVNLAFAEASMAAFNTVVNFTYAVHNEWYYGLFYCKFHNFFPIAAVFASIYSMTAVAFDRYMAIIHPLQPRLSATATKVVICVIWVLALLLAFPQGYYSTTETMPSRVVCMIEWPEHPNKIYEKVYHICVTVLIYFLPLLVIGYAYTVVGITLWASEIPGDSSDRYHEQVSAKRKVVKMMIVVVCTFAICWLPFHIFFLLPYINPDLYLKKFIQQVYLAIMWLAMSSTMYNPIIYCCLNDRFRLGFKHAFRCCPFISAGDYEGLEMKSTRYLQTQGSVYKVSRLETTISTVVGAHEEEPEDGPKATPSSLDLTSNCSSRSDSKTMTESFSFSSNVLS

C[C@@H](O[C@H]1OCCN(Cc2n[nH]c(=O)[nH]2)[C@H]1c1ccc(F)cc1)c1cc(C(F)(F)F)cc(C(F)(F)F)c1 [Aprepitant]
affinity / antagonism at human substance P/neurokinin 1 (NK1) receptors [1]: selective high-affinity antagonist
affinity for serotonin (5-HT3) receptors [2]: little or no affinity
affinity for corticosteroid receptors (corticosteroid receptors): little or no affinity
affinity for dopamine receptors (dopamine receptors): little or no affinity
